pEC50: −log10 of the molar value. Like-named read-outs stand apart in the source and are kept apart here.

The test system of one series is HIV-1. As to conditions: for (Nx) protein binding shift α-GP 1 mg/mL: EC90 with 1 mg/mL glycoprotein versus RPMI; for (Nx) protein binding shift HSA 45 mg/mL: EC90 with 45 mg/mL HSA versus RPMI.
Another series has as its system mock-infected MT-4 cells. The series can be described thus: Viability of mock-infected MT-4 cells, MTT method. The class given is cell-based. In general terms: Tetrazolium dyes change colour on reduction, which living cells bring about.
Series [1] is described as follows: Viability of mock-infected MT-4 cells, MTT method. The class given is cell-based. To be noted: human; mock-infected MT-4 cells, MTT.
A further series deals with HIV-1 K103N-Y181C. Nature of the series: microbe, parasite or virus in culture. The class given is cell-based. As to conditions: for K103N-Y181C (Nx) resistance shift: EC50 K103N-Y181C versus WTIIIB.
The test system of series [2] is HIV-1 WTIIIB. Nature of the series: p24 reduction in virus-infected C8166 cells, WTIIIB. The class given is cell-based.
The subject of series [3] is HIV-1 WTIIIB. The series can be described thus: Protection of MT-4 cells from HIV-1-induced cytopathogenicity, MTT method, WTIIIB. The class given is cell-based. From the text: Example 26 illustrates the influence of substituents at positions 4, 5, 6, and 7 of the indole ring, in which position 2 of the indole ring is maintained constant, and the substitution at the 3,5-position of the phenyl ring is either hydrogen or held constant with a 3,5-dimethyl substitution. Table 3 presents the influence of these variations on the ability of the compounds to protect cells from HIV-1 induced pathogenecity.
A general note: Cytopathic effects are the visible damage that an infection or toxin causes in cultured cells.

In another series the test system is HIV-1 Y181C. Nature of the series: microbe, parasite or virus in culture. To be noted: for Y181C (Nx) resistance shift: EC50 Y181C versus WTIIIB. The class given is cell-based.
The next series concerns HIV-1 K103R. Nature of the series: microbe, parasite or virus in culture. The class given is cell-based. To be noted: for K103R (Nx) resistance shift: EC90 K103R versus WTIIIB.
[4] abbreviates: read-out: EC90 HSA 45 mg/mL, HIV-1-infected MT-4 cells, RPMI 10% FCS plus 45 mg/mL human serum albumin.
[5] abbreviates: read-out: EC90 RPMI, reduce p24 by 90% in HIV-1-infected MT-4 cells, RPMI 10% FCS.
The mark [6] stands for this setting: read-out: EC90 α-GP 1 mg/mL, HIV-1-infected MT-4 cells, RPMI 10% FCS plus 1 mg/mL glycoprotein.
Setting [7] is: Human immunodeficiency virus 1, MT4, read-out: K103N-Y181C EC50.
The mark [8] stands for this setting: Human immunodeficiency virus 1, MT4, 50% protection of MT-4 cells.
The mark [9] stands for this setting: Human immunodeficiency virus 1, MT4, read-out: Y181C EC50.
[10] abbreviates: 50% protection of MT-4 cells, MTT, read-out: K103N-Y181C EC50.
The mark [11] stands for this setting: reduce p24 by 90% in virus-infected C8166 cells, read-out: WTIIIB EC90.
Setting [12] is: 50% protection of MT-4 cells, MTT, read-out: Y181C EC50.
Setting [13] is: reduce p24 by 90% in virus-infected C8166 cells, read-out: K103R EC90.

Regarding “5-Chloro-3-(3,5-dimethylphenylsulfonyl)-indole-2-carboxyamide [compound 2]”, the “(Nx) protein binding shift α-GP 1 mg/mL” value with HIV-1 was found to be 2 x. Further, the “(Nx) protein binding shift HSA 45 mg/mL” value with HIV-1 was 40 x. The EC90 in the series on HIV-1 (setting [4]) turned out to be 200 nM; in the series with HIV-1 (setting [5]), 5 nM; with HIV-1 (setting [6]) it was 10 nM.
As a reminder, the melting point is the temperature, or range, at which the solid turns liquid. Turning to `Cc1cc(C)cc(S(=O)(=O)c2c(CC(N)=O)[nH]c3ccc(Cl)c(F)c23)c1` [5g, 5-Chloro-3-(3,5-dimethylphenylsulfonyl)-4-fluoroindole-2-carboxyamide], the melting point lay within 268 to 270 °C.
`Cc1cc(C)cc(S(=O)(=O)c2c(CC(N)=O)[nH]c3ccc(F)c(Cl)c23)c1` [5h, 4-Chloro-3-(3,5-dimethylphenylsulfonyl)-5-fluoroindole-2-carboxyamide] showed a melting point of 279 to 280 °C.
In the case of `Cc1cc(C)cc(S(=O)(=O)c2c(CC(N)=O)[nH]c3cc(Cl)c(F)cc23)c1` [5i, 6-Chloro-3-(3,5-dimethylphenylsulfonyl)-5-fluoroindole-2-carboxyamide], the melting point lay within 262 to 264 °C.
In the case of `Cc1cc(C)cc(S(=O)(=O)c2c(CC(N)=O)[nH]c3ccc([N+](=O)[O-])cc23)c1` [5k, 5-Nitro-3-(3,5-dimethylphenylsulfonyl)indole-2-carboxyamide], the melting point lay in the range of 270 to 272 °C.
The compound `CC(=O)c1ccc2[nH]c(CC(N)=O)c(Sc3cc(C)cc(C)c3)c2c1` [5l, 5-Acetyl-3-(3,5-dimethylphenylthio)indole-2-carboxyamide] came in with a melting point greater than 300 °C.
Take `NC(=O)Cc1[nH]c2ccc(-n3cccc3)cc2c1S(=O)(=O)c1ccccc1` [25a, 5-(1H-Pyrrol-1-yl)-3-(phenylsulfonyl)indole-2-carboxyamide]: the melting point is 250 °C.
In general, CC50 refers to the concentration at which the toxic effect on the cells reaches its halfway point. As for `CNNC(=O)c1[nH]c2ccc(Cl)cc2c1S(=O)(=O)c1cc(C)cc(C)c1` [Compd 10], the CC50 with mock-infected MT-4 cells is greater than 200000 nM.
As to `Cc1cc(C)cc(S(=O)(=O)c2c(C(=O)NNC(C)C)[nH]c3ccc(Cl)cc23)c1` [Compd 11], the CC50 in the series on mock-infected MT-4 cells worked out at 17000 nM.
Take `Cc1cc(C)cc(S(=O)(=O)c2c(C(=O)N3CCN(C)CC3)[nH]c3ccc(Cl)cc23)c1` [Compd 13]: the CC50 with mock-infected MT-4 cells is greater than 200000 nM.
For orientation: pEC50 means the negative decadic logarithm of the EC50, by convention in mol/L. With `O=C1Nc2ccc(Cl)cc2[C@@](C#CC2CC2)(C(F)(F)F)O1` [EFV, efavirenz, reference compound], the midpoint of cytotoxicity in [1], the CC50, lay at 35000 nM. Besides, the pEC50 was 6.82 in the series with HIV-1 K103N-Y181C (setting [7]), 8.40 in the series on HIV-1 WTIIIB [3] (setting [8]) and 7.60 in the series with HIV-1 Y181C (setting [9]). The EC90 with HIV-1 WTIIIB [2] (Human immunodeficiency virus 1, C8166, read-out: WTIIIB EC90) is 8 nM; in the series with HIV-1 K103R (Human immunodeficiency virus 1, C8166, read-out: K103R EC90) it was 1800 nM.
Regarding `Cc1ccnc2c1NC(=O)c1cccnc1N2C1CC1` [NVP, nevirapine, reference compound], the midpoint of cytotoxicity in series [1], the CC50, lay at 200000 nM. Further, the pEC50 in the series on HIV-1 K103N-Y181C (setting [7]) is less than 4.52; in the series on HIV-1 WTIIIB [3] (setting [8]) it was 6.43; in the series with HIV-1 Y181C (setting [9]), less than 4.52.
Take `NC(=O)c1[nH]c2ccc(Cl)cc2c1S(=O)(=O)c1ccccc1` [compound 1]: the “(Nx) protein binding shift α-GP 1 mg/mL” value with HIV-1 was 2 x. In the series with HIV-1, the “(Nx) protein binding shift HSA 45 mg/mL” value came to 10 x. In addition, the EC90 in the series with HIV-1 (setting [4]) was 10 nM; with HIV-1 (setting [5]), 1 nM; in the series on HIV-1 (setting [6]), 2 nM.
For the compound `Cc1cc(C)cc(S(=O)(=O)c2c(C(=O)NNCCO)[nH]c3ccc(Cl)cc23)c1` [compound 3, 5-Chloro-3-(3,5-dimethylphenylsulfonyl)indole-2-[N′-(2-hydroxy-ethyl)]-carboxyhydrazide], the “(Nx) protein binding shift α-GP 1 mg/mL” value with HIV-1 amounted to 7 x. In addition, in the series with HIV-1, the “(Nx) protein binding shift HSA 45 mg/mL” value was 67 x. The EC90 with HIV-1 (setting [4]) was 270 nM; in the series with HIV-1 (setting [5]), 4 nM; in the series on HIV-1 (setting [6]) it was 30 nM.
Turning to `Cc1cc(C)cc(S(=O)(=O)c2c(C(=O)NCC(N)=O)[nH]c3ccc(Cl)cc23)c1` [compound 4, 2-[N-[5-Chloro-3-(3,5-dimethylphenylsulfonyl)indol-2-carboxy-amido]]-acetamide], the “(Nx) protein binding shift α-GP 1 mg/mL” value with HIV-1 stood at 3 x. For the same compound, in the series with HIV-1, the “(Nx) protein binding shift HSA 45 mg/mL” value is recorded as 80 x. For the same compound, the EC90 with HIV-1 (setting [4]) was 4800 nM; with HIV-1 (setting [5]), 60 nM; in the series with HIV-1 (setting [6]) it was 200 nM; in the series with HIV-1 WTIIIB [2] (setting [11]), 10 nM; in the series on HIV-1 K103R (setting [13]), 100 nM. The CC50 in the series with mock-infected MT-4 cells is 30000 nM. Besides, the pEC50 was 6.10 in the series with HIV-1 K103N-Y181C (setting [10]), 8.22 with HIV-1 WTIIIB [3] (50% protection of MT-4 cells) and 7.52 in the series with HIV-1 Y181C (setting [12]). In addition, in the series with HIV-1 K103N-Y181C, the “K103N-Y181C (Nx) resistance shift” value amounted to 133 x. Also, the “Y181C (Nx) resistance shift” value in the series on HIV-1 Y181C is 5 x. Moreover, in the series with HIV-1 K103R, the “K103R (Nx) resistance shift” value was found to be 10 x.
In turn, `NC(=O)c1[nH]c2cc(Cl)c(Cl)cc2c1S(=O)(=O)c1ccccc1` [compound 8] yielded a CC50 in the series with mock-infected MT-4 cells of 123000 nM. In addition, the pEC50 in the series on HIV-1 K103N-Y181C (setting [10]) was less than 4.00; in the series with HIV-1 WTIIIB [3] (50% protection of MT-4 cells), 6.85; in the series with HIV-1 Y181C (setting [12]), 5.59. For the same compound, the “K103N-Y181C (Nx) resistance shift” value in the series with HIV-1 K103N-Y181C is recorded as greater than 714 x. For the same compound, the EC90 is 170 nM in the series on HIV-1 WTIIIB [2] (setting [11]) and 16000 nM in the series with HIV-1 K103R (setting [13]). Further, the “Y181C (Nx) resistance shift” value in the series on HIV-1 Y181C was determined as 18 x. Besides, the “K103R (Nx) resistance shift” value in the series with HIV-1 K103R came out at 94 x.
As for `Cc1cc(C)cc(S(=O)(=O)c2c(CC(N)=O)[nH]c3c(Cl)cc(Cl)cc23)c1` [compound 10, 5,7-Dichloro-3-(3,5-dimethylphenylsulfonyl)indole-2-carboxyamide], the melting point is greater than 300 °C.
Turning to `Cc1cc(C)cc(S(=O)(=O)c2c(CC(N)=O)[nH]c3ccc(F)c(F)c23)c1` [compound 11, 3-(3,5-Dimethylphenylsulfonyl)-4,5-difluoroindole-2-carboxyamide], the melting point fell in the range of 298 to 300 °C.
As to `Cc1cc(C)cc(S(=O)(=O)c2c(C(N)=O)[nH]c3cc(F)c(F)cc23)c1` [compound 12, 3-(3,5-Dimethylpbenylsulfonyl)-5,6-difluoroindole-2-carboxyamide], the pEC50 in the series with HIV-1 K103N-Y181C (setting [10]) is 5.59; in the series with HIV-1 WTIIIB [3] (50% protection of MT-4 cells), no less than 8.52; in the series on HIV-1 Y181C (setting [12]), 7.15. Moreover, in the series on HIV-1 K103N-Y181C, the “K103N-Y181C (Nx) resistance shift” value was no less than 866 x. Moreover, the “Y181C (Nx) resistance shift” value in the series with HIV-1 Y181C is listed as “(≧23.3) x”.
As for `Cc1cc(C)cc(S(=O)(=O)c2c(CC(N)=O)[nH]c3c(F)cc(F)cc23)c1` [compound 13, 3-(3,5-Dimethylphenylsulfonyl)-5,7-difluoroindole-2-carboxyamide], the melting point is greater than 300 °C.
